Experimental data from patent US12247045B2, “MAP4K4 inhibitors” (Imperial College Innovations Limited, priority 2018, dated 2025).
Like-named read-outs stand apart in the source and are kept apart here.

Legend:
[1] = target: T1, human MAP4K4 kinase domain (Homo sapiens, UniProt O95819); experiment: MAP4K4 kinase activity, CisBio HTRF Transcreener ADP assay; assay type: biochemical
T1 construct: 0.5 nM human MAP4K4 kinase domain (Invitrogen); purchased Invitrogen
Summary of the method: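 HTRF Transcreener ADP read-out (665/620 nm ratio) of ADP formed by 0.5 nM kinase domain with 1 μM biotin-myelin basic protein substrate and ATP at Km (10 μM), 1% DMSO, 2 h reaction. IC50 values binned as A ≤100 nM, B 100 nM–1 μM, C >1 μM.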

[2] = target: MINK1/MAP4K6 (Homo sapiens, UniProt Q8N4C8); experiment: Kinase selectivity panel, MINK1/MAP4K6; assay type: biochemical; conditions: read-out: pIC50 MINK1/MAP4K6 (converted)
Excerpt: (§1) The data in Table 42 also provides the fold selectivity of the two compounds in favour of MAP4K4 over the tested kinase. The fold selectivity is indicated in parenthesis.

[3] = target: T2, GCK/MAP4K2 (Homo sapiens, UniProt Q12851); experiment: Kinase selectivity panel, GCK/MAP4K2; assay type: biochemical
T2 sequence (Q12851 1-820): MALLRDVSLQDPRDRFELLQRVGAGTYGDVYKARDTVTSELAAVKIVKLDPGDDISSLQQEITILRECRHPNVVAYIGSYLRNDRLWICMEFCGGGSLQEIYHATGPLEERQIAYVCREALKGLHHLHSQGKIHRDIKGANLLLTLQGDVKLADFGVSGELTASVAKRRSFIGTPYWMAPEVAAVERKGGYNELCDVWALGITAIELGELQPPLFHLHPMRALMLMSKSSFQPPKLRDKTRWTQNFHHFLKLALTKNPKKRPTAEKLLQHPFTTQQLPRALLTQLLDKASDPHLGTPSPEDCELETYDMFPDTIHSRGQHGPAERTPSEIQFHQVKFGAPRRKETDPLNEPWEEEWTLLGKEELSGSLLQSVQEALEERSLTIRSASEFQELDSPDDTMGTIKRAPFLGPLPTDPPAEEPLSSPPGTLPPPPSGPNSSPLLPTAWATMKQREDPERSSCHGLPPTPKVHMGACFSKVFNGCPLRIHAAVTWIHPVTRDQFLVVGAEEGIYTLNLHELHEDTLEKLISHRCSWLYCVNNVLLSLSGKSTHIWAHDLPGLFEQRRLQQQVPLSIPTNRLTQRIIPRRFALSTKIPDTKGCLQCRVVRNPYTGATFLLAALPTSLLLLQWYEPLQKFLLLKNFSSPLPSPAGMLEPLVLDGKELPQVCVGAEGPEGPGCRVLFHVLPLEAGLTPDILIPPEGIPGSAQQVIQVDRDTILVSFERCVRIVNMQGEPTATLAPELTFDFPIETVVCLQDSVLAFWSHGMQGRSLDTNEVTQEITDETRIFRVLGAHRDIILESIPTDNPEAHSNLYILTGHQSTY
Excerpt: as §1

[4] = target: T3, GLK/MAP4K3 (Homo sapiens, UniProt Q8IVH8); experiment: Kinase selectivity panel, GLK/MAP4K3; assay type: biochemical
T3 sequence (Q8IVH8 1-894): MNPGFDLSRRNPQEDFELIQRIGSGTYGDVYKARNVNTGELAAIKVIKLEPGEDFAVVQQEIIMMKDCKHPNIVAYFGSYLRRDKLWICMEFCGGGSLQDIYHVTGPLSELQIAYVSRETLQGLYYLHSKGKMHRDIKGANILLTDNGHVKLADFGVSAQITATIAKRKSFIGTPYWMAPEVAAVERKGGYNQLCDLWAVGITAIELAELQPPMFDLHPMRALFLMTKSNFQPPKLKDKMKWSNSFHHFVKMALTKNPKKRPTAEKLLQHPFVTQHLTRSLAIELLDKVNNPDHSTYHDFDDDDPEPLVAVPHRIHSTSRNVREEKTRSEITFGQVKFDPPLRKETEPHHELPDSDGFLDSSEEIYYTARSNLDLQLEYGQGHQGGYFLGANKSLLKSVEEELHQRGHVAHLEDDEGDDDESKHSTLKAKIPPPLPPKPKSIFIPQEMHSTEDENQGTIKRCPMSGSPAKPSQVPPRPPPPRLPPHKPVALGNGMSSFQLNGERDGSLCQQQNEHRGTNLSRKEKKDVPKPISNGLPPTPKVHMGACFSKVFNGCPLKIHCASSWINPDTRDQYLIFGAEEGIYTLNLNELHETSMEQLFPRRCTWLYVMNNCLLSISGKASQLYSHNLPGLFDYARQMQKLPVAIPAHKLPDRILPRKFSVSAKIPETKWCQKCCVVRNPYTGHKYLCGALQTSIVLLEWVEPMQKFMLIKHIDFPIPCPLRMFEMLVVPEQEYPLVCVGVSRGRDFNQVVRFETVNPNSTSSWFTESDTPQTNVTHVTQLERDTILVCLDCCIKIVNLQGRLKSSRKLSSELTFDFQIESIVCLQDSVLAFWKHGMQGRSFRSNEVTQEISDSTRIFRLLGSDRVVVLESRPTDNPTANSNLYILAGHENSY
Excerpt: as §1

[5] = target: KHS/MAP4K5 (Homo sapiens, UniProt Q9Y4K4); experiment: Kinase selectivity panel, KHS/MAP4K5; assay type: biochemical
Excerpt: as §1

[6] = target: Aurora B (Homo sapiens, UniProt Q96GD4); experiment: Kinase selectivity panel, Aurora B; assay type: biochemical; conditions: in favour of MAP4K4
Excerpt: as §1

[7] = target: MLK3/MAP3K11 (Homo sapiens, UniProt Q16584); experiment: Kinase selectivity panel, MLK3/MAP3K11; assay type: biochemical
Excerpt: as §1

[8] = system: mice undergoing experimental myocardial infarction; experiment: Infarct size in mice undergoing experimental myocardial infarction; assay type: in vivo; conditions: compared to vehicle control (DMSO)
Description: To test if target validation and compound development in hiPSC-CMs might predict success in a whole-animal context, mice undergoing experimental myocardial infarction were treated with Ex-78 or the vehicle control (DMSO) (FIG. 6). The suppression of cardiac muscle cell death achieved roughly a 55% reduction in infarct size as a proportion of the area at ischemic risk compared to control.

T1 sequence (O95819 25-289 limits assumed): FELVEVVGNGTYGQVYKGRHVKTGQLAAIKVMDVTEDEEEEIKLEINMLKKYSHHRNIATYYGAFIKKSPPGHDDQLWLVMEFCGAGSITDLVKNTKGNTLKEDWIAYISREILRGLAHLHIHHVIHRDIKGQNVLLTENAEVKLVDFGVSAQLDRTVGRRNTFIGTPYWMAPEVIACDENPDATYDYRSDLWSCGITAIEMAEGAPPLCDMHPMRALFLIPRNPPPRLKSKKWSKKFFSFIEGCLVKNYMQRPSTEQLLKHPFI
MLK3/MAP3K11, sequence (Q16584 whole entry): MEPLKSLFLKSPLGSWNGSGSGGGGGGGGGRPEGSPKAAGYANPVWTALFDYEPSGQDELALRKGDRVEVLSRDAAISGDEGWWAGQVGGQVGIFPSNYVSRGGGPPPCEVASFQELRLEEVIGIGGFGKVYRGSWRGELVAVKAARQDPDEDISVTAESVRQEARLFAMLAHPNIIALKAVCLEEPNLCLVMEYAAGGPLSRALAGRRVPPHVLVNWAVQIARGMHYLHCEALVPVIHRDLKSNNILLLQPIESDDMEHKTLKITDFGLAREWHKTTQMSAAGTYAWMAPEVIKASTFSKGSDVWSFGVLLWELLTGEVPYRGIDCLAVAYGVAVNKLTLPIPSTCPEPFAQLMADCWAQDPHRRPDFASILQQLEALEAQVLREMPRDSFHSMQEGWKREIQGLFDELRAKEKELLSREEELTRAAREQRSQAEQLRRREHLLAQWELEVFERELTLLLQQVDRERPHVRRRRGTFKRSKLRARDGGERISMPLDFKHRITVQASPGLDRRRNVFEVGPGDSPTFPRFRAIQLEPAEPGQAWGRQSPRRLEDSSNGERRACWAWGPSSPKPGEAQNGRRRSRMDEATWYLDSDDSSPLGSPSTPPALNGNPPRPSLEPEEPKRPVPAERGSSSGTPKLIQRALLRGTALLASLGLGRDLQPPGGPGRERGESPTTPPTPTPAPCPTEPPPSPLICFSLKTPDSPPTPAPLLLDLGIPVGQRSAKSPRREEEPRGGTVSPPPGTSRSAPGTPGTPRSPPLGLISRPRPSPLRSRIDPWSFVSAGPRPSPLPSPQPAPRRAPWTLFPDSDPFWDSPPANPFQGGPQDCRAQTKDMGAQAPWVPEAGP
KHS/MAP4K5, sequence (Q9Y4K4 whole entry): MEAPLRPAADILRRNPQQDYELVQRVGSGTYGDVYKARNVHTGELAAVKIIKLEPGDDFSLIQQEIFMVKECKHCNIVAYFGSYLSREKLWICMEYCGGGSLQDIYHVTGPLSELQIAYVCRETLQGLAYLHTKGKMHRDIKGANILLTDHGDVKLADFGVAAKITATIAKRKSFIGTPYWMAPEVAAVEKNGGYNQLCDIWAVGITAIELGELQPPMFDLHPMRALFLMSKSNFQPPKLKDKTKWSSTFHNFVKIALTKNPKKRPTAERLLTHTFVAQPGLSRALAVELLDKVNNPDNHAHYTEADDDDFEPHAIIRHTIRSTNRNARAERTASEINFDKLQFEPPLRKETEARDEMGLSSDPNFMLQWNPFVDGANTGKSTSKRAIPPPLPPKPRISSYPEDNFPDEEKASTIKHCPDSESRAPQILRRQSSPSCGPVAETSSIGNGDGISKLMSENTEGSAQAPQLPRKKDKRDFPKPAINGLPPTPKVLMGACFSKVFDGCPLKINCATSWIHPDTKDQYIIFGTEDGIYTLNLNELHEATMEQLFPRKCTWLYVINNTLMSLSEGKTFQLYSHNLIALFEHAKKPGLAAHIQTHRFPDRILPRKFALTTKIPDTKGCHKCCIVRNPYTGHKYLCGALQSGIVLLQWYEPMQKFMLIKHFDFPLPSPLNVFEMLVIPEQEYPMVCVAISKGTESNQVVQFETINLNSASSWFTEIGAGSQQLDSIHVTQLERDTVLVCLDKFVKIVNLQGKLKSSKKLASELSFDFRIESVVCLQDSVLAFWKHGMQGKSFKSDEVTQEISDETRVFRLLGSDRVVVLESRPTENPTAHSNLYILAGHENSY
MINK1/MAP4K6, sequence (Q8N4C8 whole entry): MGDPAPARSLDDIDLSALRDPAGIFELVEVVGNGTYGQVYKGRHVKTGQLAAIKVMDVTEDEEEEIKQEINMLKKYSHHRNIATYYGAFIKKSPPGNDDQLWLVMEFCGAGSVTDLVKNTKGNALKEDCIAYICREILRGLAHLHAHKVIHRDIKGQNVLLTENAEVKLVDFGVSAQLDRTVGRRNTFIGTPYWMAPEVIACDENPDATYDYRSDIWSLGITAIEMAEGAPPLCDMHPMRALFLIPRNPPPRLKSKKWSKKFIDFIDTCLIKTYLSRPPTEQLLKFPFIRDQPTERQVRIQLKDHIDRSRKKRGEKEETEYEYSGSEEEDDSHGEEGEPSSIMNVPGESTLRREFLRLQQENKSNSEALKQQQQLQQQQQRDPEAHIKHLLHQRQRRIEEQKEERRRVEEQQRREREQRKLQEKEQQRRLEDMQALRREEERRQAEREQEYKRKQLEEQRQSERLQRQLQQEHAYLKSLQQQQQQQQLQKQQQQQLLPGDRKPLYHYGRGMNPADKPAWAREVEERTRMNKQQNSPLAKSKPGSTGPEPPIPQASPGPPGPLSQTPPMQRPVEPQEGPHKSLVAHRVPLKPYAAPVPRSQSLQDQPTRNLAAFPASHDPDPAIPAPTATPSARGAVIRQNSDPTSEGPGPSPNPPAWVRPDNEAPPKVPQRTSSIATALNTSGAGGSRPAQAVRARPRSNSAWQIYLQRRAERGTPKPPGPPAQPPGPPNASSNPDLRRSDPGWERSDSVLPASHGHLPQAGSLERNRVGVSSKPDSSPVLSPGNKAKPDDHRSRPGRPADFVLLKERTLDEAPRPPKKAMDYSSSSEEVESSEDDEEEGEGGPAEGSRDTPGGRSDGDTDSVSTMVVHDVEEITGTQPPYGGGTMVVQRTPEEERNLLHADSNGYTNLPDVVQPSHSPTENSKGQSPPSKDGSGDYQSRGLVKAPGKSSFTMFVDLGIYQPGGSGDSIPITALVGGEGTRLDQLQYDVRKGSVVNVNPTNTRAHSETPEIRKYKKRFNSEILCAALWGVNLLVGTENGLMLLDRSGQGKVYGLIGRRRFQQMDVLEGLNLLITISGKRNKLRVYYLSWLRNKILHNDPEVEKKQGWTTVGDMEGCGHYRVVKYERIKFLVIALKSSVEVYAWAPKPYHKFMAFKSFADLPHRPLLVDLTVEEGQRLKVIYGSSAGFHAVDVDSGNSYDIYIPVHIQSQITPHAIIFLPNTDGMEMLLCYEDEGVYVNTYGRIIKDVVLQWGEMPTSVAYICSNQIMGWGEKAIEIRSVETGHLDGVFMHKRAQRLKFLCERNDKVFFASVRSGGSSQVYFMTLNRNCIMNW
Aurora B, sequence (Q96GD4 whole entry): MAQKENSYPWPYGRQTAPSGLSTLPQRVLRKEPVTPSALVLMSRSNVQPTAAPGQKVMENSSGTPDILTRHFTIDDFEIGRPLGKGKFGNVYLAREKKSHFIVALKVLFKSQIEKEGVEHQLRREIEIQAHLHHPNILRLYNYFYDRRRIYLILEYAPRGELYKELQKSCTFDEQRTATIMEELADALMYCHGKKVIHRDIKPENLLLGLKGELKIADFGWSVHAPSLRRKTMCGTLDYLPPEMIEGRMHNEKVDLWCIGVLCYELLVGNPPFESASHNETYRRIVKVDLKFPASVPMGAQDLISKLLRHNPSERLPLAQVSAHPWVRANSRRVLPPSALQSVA

Work on `CC(C)(O)CCOc1ccc(-c2cn(-c3cccnc3)c3nc[nH]c(=O)c23)cc1` [Ex-78, 5-(4-(3-hydroxy-3-methylbutoxy)phenyl)-7-(pyridin-3-yl)-3,7-dihydro-4H-pyrrolo[2,3-d]pyrimidin-4-one] yielded an IC50 ([1]; IC50 category, ATP at Km (10 μM), 0.5 nM kinase domain, 2 h, read-out: MAP4K4) of at most 100 nM, an IC50 ([1]; read-out: pIC50 MAP4K4 (converted)) of 31.6 nM and an IC50 [2] of 63.1 nM. The “fold selectivity MAP4K4 over GCK/MAP4K2” value ([3]; in favour of MAP4K4) was “(32) fold”, the IC50 ([3]; read-out: pIC50 GCK/MAP4K2 (converted)) was 1000 nM and the “fold selectivity MAP4K4 over GLK/MAP4K3” value ([4]; in favour of MAP4K4) was “(50) fold”. The IC50 ([4]; read-out: pIC50 GLK/MAP4K3 (converted)) was 1580 nM, the “fold selectivity MAP4K4 over KHS/MAP4K5” value ([5]; in favour of MAP4K4) was “(10) fold” and the IC50 ([5]; read-out: pIC50 KHS/MAP4K5 (converted)) was 316 nM. For the same compound, the “fold selectivity MAP4K4 over Aurora B” value [6] was “(1000) fold”, the “fold selectivity MAP4K4 over MLK3/MAP3K11” value ([7]; in favour of MAP4K4) was “(8) fold” and the IC50 ([7]; read-out: pIC50 MLK3/MAP3K11 (converted)) was 251 nM. The “reduction in infarct size as a proportion of the area at ischemic risk” value [8] was about 55%.
